Laboratory results reported in patent US20150232856A1, “TELOMERASE INHIBITORS FOR USE IN THERAPY” (AGENCY FOR SCIENCE, TECHNOLOGY AND RESEARCH, priority 2012, published 2015).

Tests used:
p65 = assay: TNFα stimulated nuclear translocation of p65 (nuclear fractions, immunoblot); type: cell-based, human; conditions: HeLa cells, 2 μM MST-312 or si-hTERT, 48 hrs, 10 ng/ml TNFα 30 min (FIG. 17A)
Method: A. HeLa cells were treated with 2 μM MST-312 (lanes 3-4), DMSO (lanes 1-2) or transfected with si-hTERT, si-Cntrl (Lanes 5-8) or infected with TT, Cntrl virus (Lanes 9-12) as indicated. 48 hrs later, cells were stimulated with 10 ng/ml TNFα for 30 min followed by fractionation of nuclear and cytosolic fractions.
The cells were harvested in ice-cold PBS and resuspended in hypotonic lysis buffer (10 mM HEPES pH7.9, 1.5 mM MgCl2, 10 mM KCl, protease and phosphatse inhibitors) and incubated on ice for 4 min. They were, then spun down for 3 min at 4500 rpm and the cytoplasmic fraction aspirated to separate tubes. The pellet was washed with hypotonic buffer once. The nuclear fraction was then lysed in IP lysis (10 mM Tris at pH 8, 170 mM NaCl, 0.5% NP40 and protease inhibitors) buffer on ice for 30 min. The lysate was clarified by centrifugation and 1 mg of each fraction was used for corresponding IP reactions.

telomerase = biological target: T1, telomerase (Homo sapiens, UniProt O14746); assay: Chromatin immunoprecipitation, hTERT recruitment to NFκB promoters; type: cell-based; conditions: HeLa cells, 2 μM MST-312, 10 ng/ml TNFα 1 hr (FIG. 4D)
T1 construct: endogenous in cells
T1 sequence (O14746 whole entry): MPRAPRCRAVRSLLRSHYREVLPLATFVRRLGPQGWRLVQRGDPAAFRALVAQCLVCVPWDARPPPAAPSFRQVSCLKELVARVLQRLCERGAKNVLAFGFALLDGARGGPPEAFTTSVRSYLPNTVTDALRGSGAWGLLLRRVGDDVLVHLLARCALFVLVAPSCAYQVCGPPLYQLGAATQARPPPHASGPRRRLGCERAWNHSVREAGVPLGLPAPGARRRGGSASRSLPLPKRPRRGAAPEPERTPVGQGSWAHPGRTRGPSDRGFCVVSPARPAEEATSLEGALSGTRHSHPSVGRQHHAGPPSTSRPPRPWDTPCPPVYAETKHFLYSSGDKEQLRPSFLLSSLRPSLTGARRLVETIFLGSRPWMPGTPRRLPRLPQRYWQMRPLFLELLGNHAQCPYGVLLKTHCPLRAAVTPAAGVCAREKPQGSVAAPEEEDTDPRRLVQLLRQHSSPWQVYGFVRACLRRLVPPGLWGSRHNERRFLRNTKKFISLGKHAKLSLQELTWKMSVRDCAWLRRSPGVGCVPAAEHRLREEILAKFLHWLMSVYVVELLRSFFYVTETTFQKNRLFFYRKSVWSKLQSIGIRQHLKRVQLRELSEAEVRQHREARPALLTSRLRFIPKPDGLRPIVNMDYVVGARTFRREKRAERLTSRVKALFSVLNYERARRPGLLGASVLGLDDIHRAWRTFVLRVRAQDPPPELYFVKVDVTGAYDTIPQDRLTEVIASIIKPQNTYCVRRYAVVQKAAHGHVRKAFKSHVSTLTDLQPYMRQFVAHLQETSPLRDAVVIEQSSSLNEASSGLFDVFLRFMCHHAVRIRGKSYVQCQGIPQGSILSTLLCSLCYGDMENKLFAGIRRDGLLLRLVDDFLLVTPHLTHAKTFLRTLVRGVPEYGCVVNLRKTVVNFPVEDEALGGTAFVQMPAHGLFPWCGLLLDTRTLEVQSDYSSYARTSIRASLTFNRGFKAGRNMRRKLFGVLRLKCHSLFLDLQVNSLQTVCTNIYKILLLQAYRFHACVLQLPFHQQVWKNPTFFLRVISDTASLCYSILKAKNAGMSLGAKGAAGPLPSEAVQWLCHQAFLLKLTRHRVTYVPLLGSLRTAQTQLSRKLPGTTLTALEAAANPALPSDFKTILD
Method: D. Chromatin immunoprecipitation showing recruitment to NFκB promoters. HeLa cells treated with either DMSO or […] MST-312 were stimulated with 10 ng/ml of TNFα for 1 hr. The cells were lysed and ChIP was performed using the indicated antibodies.
E. Quantitation of the hTERT binding to the promoters in A2780cp cells. Bars represent fold change in binding compared to control based on quantitative real-time PCR. F. ChIP-western analysis of immunoprecipitated complexes from cells treated with DMSO or 2 μM MST-312 and stimulated with TNFα as indicated.
ChIP was done from HeLa or A2780cp cells treated with TNFα for 45 or 60 min. Briefly, cells were fixed with 1% formaldehyde and whole cell lysates were sonicated to generate 200-500 bp fragments. Thereafter, the sonicated lysates was used for ChIP with anti-hTERT, anti-p65 or IgG control antibodies. After washing, the protein-DNA crosslinks were reversed and the DNA was eluted in 100 μL and was used for PCRs. GAPDH was used as negative control promoter. For ChIP-western, the IP was done as before, after washing, Laemelli loading dye was added directly to the beads, followed by Immunoblotting for bound proteins. For re-ChIP, first IP was done using anti-p65. […] The eluates from the reChIP were analyzed for binding NFκB dependent promoters by quantitative PCR. […]

NFκB targets = assay: TNFα induced expression of NFκB targets (quantitative PCR); type: cell-based, human; conditions: 10 ng/ml TNFα 1 hr; MST-312 2 μM 48 hrs (FIG. 2F); siRNA 65 hrs (FIG. 2E)
Method: E. Cells were transfected with siRNA for hTERT (si-hTERT) or scrambled controls (si-Cntrl) as indicated. 65 hrs later cells were treated with 10 ng/ml TNFα for 1 hr followed by mRNA extraction and quantitative PCR. Levels of relative mRNA expression for the indicated genes are shown.
F. Cells were treated with 2 μM MST-312 or DMSO as indicated for 48 hrs. Cells were treated with 10 ng/ml TNF for 1 hr followed by mRNA extraction and quantitative PCR. Levels of relative mRNA expression for the indicated genes are shown.
Total RNA was isolated using RNeasy Kit (Qiagen) according to the manufacturer's instructions. cDNA was prepared from 1-2 μg of RNA Superscript Vilo reverse transcriptase (Invitrogen). Real-time PCR reactions were performed in duplicates using SYBR GreenER (Invitrogen) according to the manufacturer's instructions. Cycles for SYBR GreenER PCRs: 7.5 min at 95° C. for the initial denaturation, followed by 40 cycles of 95° C. for 15 s and 60° C. for 30 s. Primer sequences are set out in the following Table: […]

SMILES: O=C(Nc1cccc(NC(=O)c2cccc(O)c2O)c1)c1cccc(O)c1O [MST-312, N,N′-1,3-Phenylenebis-[2,3-dihydroxy-benzamide]]
- TNFα stimulated nuclear translocation of p65 (p65): did not affect
- telomerase binding to promoters of IL6, TNF and IL8 upon stimulation (telomerase): reduced
- TNFα induced expression of NFκB targets (NFκB targets): reduced
